This passage reports IC50 and Ki results from ChEMBL document CHEMBL1909046, “DrugMatrix in vitro pharmacology data”.

Series [1] deals with Platelet-activating factor receptor (Homo sapiens, UniProt P25105). The experiment in a line: biochemical. Particulars: platelet. It is filed as tissue-based.
The target of series [2] is Protein kinase C alpha type (Homo sapiens, UniProt P17252). It is filed as cell-based. Particulars: sf9.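 Also: inhibition of PKCalpha kinase activity measured in an enzyme assay with histone as the phosphorylation substrate; in other assays of this panel Not Active means under 50% inhibition at 10 µM.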
For series [3], the target named is T1, Angiotensin-converting enzyme (Oryctolagus cuniculus, UniProt P12822).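 Also: enzymatic inhibition of angiotensin-converting enzyme measured with FAPGG as the substrate; in other assays of this panel Not Active means under 50% inhibition at 10 µM.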
T1 sequence (P12822 whole entry): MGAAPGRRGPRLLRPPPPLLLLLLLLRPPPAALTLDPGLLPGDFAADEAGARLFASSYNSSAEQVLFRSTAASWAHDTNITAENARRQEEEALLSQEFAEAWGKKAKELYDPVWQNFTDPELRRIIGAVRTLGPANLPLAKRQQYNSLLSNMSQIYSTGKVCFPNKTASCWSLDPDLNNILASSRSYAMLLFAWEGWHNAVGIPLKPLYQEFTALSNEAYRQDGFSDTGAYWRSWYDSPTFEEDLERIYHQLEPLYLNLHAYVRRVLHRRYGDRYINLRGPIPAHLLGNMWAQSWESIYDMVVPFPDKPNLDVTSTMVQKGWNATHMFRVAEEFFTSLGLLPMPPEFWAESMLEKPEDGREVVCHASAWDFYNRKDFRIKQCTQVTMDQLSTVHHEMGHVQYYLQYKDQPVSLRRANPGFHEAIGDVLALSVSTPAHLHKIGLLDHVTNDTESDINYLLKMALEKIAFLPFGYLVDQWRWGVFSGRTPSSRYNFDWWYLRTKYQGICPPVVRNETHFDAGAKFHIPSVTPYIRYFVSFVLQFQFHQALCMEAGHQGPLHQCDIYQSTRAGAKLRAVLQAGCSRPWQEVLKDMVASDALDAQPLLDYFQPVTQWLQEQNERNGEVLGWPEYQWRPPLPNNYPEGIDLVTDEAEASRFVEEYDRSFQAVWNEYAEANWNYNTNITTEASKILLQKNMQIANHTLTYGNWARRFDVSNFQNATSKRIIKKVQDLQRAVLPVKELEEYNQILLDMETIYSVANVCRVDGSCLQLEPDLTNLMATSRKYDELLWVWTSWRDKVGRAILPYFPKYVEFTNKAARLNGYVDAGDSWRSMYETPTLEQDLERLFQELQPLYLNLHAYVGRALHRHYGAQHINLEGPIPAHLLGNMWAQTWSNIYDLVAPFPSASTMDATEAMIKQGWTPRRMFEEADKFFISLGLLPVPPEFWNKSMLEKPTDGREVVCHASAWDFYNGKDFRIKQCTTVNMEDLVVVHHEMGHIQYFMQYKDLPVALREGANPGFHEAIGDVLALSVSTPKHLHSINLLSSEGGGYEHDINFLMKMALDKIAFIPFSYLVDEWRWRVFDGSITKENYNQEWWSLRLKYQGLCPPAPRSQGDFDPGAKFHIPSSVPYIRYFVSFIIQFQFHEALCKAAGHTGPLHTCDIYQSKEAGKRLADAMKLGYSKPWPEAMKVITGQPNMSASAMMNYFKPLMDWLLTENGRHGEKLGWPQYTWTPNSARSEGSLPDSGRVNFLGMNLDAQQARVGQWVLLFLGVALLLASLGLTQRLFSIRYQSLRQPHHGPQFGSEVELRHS
The experiment in a line: biochemical. It is filed as tissue-based, Lung.

For series [4], the target named is Beta-2 adrenergic receptor (Homo sapiens, UniProt P07550). As to the kind of experiment: DRUGMATRIX: Adrenergic beta2 radioligand binding (ligand: [3H] CGP-12177). Particulars: cho; Not Active = under 50% inhibition at 10 µM. It is filed as cell membranes, Membrane.
The target of series [5] is T2, 5-hydroxytryptamine receptor 2C (Homo sapiens, UniProt P28335).
T2 sequence (P28335 whole entry): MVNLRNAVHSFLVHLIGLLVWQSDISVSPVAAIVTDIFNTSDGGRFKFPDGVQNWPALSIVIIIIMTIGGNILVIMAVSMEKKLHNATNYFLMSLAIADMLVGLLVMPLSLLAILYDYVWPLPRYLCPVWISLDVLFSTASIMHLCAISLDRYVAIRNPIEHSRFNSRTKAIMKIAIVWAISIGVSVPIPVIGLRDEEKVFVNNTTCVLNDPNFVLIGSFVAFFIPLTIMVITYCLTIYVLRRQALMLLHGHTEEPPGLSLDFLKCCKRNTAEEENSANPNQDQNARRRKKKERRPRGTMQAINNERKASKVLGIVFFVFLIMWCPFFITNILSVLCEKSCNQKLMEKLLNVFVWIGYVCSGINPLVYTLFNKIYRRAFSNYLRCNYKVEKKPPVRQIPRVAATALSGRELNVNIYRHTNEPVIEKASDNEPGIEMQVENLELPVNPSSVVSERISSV
As to the kind of experiment: DRUGMATRIX: Serotonin (5-Hydroxytryptamine) 5-HT2C radioligand binding (ligand: [3H] Mesulergine). It is filed as cell membranes, CHO-K1, Membrane. Particulars: Not Active = under 50% inhibition at 10 µM.

Series [6] is described as follows: DRUGMATRIX: Glutamate, NMDA, Agonism radioligand binding (ligand: [3H] CGP-39653). Particulars: Not Active = under 50% inhibition at 10 µM. It is filed as cell membranes, Rattus norvegicus, Wistar, Cerebral cortex, Membrane.
The next series deals with T3, Caspase-1 (Homo sapiens, UniProt P29466).
T3 sequence (P29466 whole entry): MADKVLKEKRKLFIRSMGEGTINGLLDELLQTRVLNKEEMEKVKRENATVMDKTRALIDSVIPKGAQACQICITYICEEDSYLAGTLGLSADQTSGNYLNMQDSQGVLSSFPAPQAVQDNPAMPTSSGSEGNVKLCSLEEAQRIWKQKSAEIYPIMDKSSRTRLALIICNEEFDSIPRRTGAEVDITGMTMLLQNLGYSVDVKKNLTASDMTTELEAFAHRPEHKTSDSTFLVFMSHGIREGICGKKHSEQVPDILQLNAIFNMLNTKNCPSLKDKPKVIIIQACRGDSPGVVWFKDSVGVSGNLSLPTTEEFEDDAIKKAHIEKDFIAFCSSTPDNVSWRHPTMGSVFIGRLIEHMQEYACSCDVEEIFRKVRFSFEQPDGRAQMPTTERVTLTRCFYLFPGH
Further details: species or system Escherichia coli.

For a further series, the target named is Cytochrome P450 3A4 (Homo sapiens, UniProt P08684). Particulars: bti-tn-5b1-4. Also: in other assays of this panel Not Active means under 50% inhibition at 10 µM.
Sequence of Cytochrome P450 3A4 (P08684 whole entry): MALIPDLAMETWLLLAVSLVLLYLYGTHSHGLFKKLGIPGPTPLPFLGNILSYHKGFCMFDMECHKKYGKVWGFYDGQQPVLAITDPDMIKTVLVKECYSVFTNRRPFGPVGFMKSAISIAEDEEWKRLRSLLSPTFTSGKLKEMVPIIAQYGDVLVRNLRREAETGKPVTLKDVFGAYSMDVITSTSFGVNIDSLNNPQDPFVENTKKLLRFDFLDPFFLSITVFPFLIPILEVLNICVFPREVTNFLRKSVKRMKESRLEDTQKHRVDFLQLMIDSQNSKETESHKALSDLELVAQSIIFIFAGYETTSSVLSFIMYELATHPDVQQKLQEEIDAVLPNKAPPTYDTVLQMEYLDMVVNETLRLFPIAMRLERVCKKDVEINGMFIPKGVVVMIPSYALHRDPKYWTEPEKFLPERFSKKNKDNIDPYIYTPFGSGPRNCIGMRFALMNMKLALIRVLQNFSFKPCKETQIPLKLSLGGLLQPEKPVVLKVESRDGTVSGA
The nature of series [7]: DRUGMATRIX: Tumor Necrosis Factor (TNF), Non-Selective radioligand binding (ligand: [125I] TNF-alpha). It is filed as cell membranes, Membrane. Particulars: u-937; Not Active = under 50% inhibition at 10 µM.
Series [8] concerns the target Prostaglandin G/H synthase 1 (Homo sapiens, UniProt P23219). The experiment in a line: biochemical. It is filed as tissue-based, Platelet. Particulars: platelet.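 Also: inhibition of COX-1 enzyme activity, with arachidonic acid supplied as substrate; in other assays of this panel Not Active means under 50% inhibition at 10 µM.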
Series [9] in a line: DRUGMATRIX: Atrial Natriuretic Factor (ANF) radioligand binding (ligand: [125I] ANF (rat)). It is filed as cell membranes, Cavia porcellus, Dunkin-Hartley, Adrenal gland, Membrane. Particulars: Not Active = under 50% inhibition at 10 µM.
A short description of series [10]: DRUGMATRIX: Nicotinic Acetylcholine radioligand binding (ligand: [125I] Epibatidine). It is filed as cell membranes, Membrane. Particulars: imr-32; Not Active = under 50% inhibition at 10 µM.

Sequence of Prostaglandin G/H synthase 1 (P23219 whole entry): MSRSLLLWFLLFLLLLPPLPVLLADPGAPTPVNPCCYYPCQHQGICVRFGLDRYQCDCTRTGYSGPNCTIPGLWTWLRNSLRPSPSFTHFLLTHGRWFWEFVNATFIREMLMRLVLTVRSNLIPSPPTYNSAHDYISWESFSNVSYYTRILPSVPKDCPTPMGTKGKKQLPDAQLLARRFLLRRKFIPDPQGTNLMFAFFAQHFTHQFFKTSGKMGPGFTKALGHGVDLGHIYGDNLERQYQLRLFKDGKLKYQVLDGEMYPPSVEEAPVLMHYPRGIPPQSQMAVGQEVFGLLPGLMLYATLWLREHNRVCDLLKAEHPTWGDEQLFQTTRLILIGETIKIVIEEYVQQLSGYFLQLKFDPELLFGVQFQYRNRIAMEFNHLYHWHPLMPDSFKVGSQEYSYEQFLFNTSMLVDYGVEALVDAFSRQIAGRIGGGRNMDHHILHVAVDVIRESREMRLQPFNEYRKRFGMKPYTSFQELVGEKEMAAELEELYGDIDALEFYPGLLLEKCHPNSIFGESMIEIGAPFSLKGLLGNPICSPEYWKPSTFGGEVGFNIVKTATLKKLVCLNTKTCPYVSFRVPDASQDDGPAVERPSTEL
Sequence of Platelet-activating factor receptor (P25105 whole entry): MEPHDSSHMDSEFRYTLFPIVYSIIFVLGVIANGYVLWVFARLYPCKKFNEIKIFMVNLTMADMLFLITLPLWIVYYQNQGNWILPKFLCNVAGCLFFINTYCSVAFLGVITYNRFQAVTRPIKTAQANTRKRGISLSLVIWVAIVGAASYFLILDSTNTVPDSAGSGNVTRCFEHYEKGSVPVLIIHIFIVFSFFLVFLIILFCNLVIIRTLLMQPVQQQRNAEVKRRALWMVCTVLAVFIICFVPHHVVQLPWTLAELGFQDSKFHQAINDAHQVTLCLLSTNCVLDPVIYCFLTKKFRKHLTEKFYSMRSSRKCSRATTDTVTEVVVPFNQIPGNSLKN

In the case of `CCCc1cc(=O)[nH]c(=S)[nH]1` [PROPYLTHIOURACIL], the 50% inhibitory concentration (IC50) entry in [1], in [2], in series [3], in series [4], in series [5] (cho-k1) and in [6] was “Not Active” throughout. For the same compound, the IC50 result (at Caspase-1; against Cytochrome P450 3A4; in series [7]; in [8]; in [9]; in series [10]) was “Not Active” throughout. In addition, the Ki result (in series [6]; at Cytochrome P450 3A4; in [7]; in series [9]; in series [10]) was “Not Active” each time.

Take `COc1ccc(CN(CCN(C)C)c2ccccn2)cc1` [PYRILAMINE]: the IC50 result in series [1] was “Not Active”; in [2], “Not Active”; in series [3], “Not Active”; in series [4], “Not Active”; in series [5] (read-out: IC50) it was 1.13 µM; in [6], “Not Active”. The concentration for half-maximal inhibition (IC50) result (at Caspase-1; against Cytochrome P450 3A4; in series [7]; in series [8]; in series [9]; in [10]) was “Not Active” each time. Moreover, the Ki is 0.592 µM in [5] (read-out: Ki); “Not Active” in series [6]; “Not Active” on Cytochrome P450 3A4; “Not Active” in series [7]; “Not Active” in [9]; “Not Active” in series [10].

With CARBOPLATIN, the half-maximal inhibitory concentration (IC50) entry in series [1], in series [2], in [3], in [4], in [5] (cho-k1) and in [6] was “Not Active” each time. Besides, the concentration for half-maximal inhibition (IC50) entry (at Caspase-1; at Cytochrome P450 3A4; in series [7]; in [8]; in series [9]; in series [10]) was “Not Active” throughout. The Ki entry in series [1], in [2], in series [3], in series [4], in [5] (cho-k1) and in [6] was “Not Active” each time. Also, the Ki result (on Caspase-1; at Cytochrome P450 3A4; in [7]; in [8]; in [9]; in [10]) was “Not Active” in each case.

Regarding CISPLATIN, the IC50 entry in series [1], in series [2], in [3], in series [4], in series [5] (cho-k1) and in series [6] was “Not Active” in each case. Besides, the half-maximal inhibitory concentration (IC50) result (on Caspase-1; on Cytochrome P450 3A4; in [7]; in series [8]; in series [9]; in series [10]) was “Not Active” throughout. Further, the Ki entry in series [1], in series [2], in series [3], in series [4], in series [5] (cho-k1) and in [6] was “Not Active” throughout. The Ki result (on Caspase-1; at Cytochrome P450 3A4; in series [7]; in series [8]; in [9]; in series [10]) was “Not Active” throughout.

As to GOLD SODIUM THIOMALATE, the IC50 entry in series [1], in series [2], in series [3], in series [4], in [5] (cho-k1) and in [6] was “Not Active” in each case. In addition, the IC50 entry (at Caspase-1; against Cytochrome P450 3A4; in [7]; in [8]; in series [9]; in series [10]) was “Not Active” throughout. Moreover, the inhibitory constant (Ki) entry in series [1], in series [2], in series [3], in series [4], in series [5] (cho-k1) and in [6] was “Not Active” each time. The Ki result (on Caspase-1; on Cytochrome P450 3A4; in series [7]; in series [8]; in series [9]; in series [10]) was “Not Active” each time.

The IC50 is the concentration that gives 50% inhibition. The Ki is the dissociation constant of the complex between target and ligand, obtained from inhibition or displacement.
